How the values were obtained:
Pim-1 wild type [1] = molecular target: T1, Pim-1 wild type (Homo sapiens, UniProt P11309); assay type: biochemical; conditions: ATP as substrate, wild type protein
T1 construct: hexahistidine tag (TEV-cleavable) (cleaved yes); made in house; host or cells: E. coli BL21(DE3)
Experimental: (§1) Phosphorylation reaction was monitored using a coupled-enzyme assay in which ADP production is coupled to NADH oxidation by pyruvate kinase and lactate dehydrogenase. […] In the Caliper mobility shift assays kinase reactions were analyzed by microfluidic capillary electrophoresis. The final assay buffer was 50 mM HEPES, pH 7.5, 1 mM DTT, 0.02% Tween 20, 0.02% BSA, 10 mM beta-glycerophosphate, 0.01 mM Na3VO4, 0.6% DMSO, 8 mM MgCl2, 2 µM peptide and 0.2 nM kinase. The reactions were started by addition of substrate mix consisting of ATP and peptide substrate to kinase and inhibitor solution. ATP concentrations were adjusted to the Kmvalues of the specific Pim enzyme. After incubation for 60 min at 30°C reactions were terminated with 100 mM HEPES pH 7.5, 5% DMSO, 0.1% coating reagent (Caliper Lifescience) 10 mM EDTA pH 8.0, 0.015% Brij35. Levels of substrate and product were quantified by measuring the laser-induced fluorescence intensities of fluorescein labels of the peptide.

Pim-1 E124Q = molecular target: T2, Pim-1 E124Q (Homo sapiens, UniProt P11309, E124Q); assay: Inhibitor binding by temperature shift assay (SYPRO Orange); conditions: Pim-1 E124Q 2 µM, compound 10 µM
T2 construct: hexahistidine tag (TEV-cleavable) (cleaved yes); made in house; host or cells: E. coli BL21(DE3)
T2 sequence (P11309 whole entry E124Q): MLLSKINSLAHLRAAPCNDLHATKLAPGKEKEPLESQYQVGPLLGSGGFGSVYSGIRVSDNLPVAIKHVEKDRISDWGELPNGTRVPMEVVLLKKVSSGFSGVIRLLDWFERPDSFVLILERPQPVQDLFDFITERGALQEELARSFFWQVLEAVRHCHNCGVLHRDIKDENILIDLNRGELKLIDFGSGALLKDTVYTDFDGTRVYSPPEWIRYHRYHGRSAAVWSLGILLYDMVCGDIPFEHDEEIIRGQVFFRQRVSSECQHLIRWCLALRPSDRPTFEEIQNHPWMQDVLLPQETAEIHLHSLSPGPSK
Experimental: (§2) Thermal melting experiments were carried out using an Mx3005p Real Time PCR machine (Stratagene). Proteins were buffered in 10 mM HEPES pH 7.5, 500 mM NaCl and assayed in a 96-well plate at a final concentration of 2 µM in 20 µl volume. Compounds were added at a final concentration of 10 µM. SYPRO Orange (Molecular Probes) was added as a fluorescence probe at a dilution of 1∶1000. […] Data was analysed as previously described.

Pim-1 wild type [2] = molecular target: T1, Pim-1 wild type; assay: as above; conditions: Pim-1 wild type 2 µM, compound 10 µM
Experimental: as §2

Pim-1 E142D = molecular target: T3, Pim-1 E142D (Homo sapiens, UniProt P11309, E142D); assay: as above; conditions: Pim-1 E142D 2 µM, compound 10 µM
T3 construct: hexahistidine tag (TEV-cleavable) (cleaved yes); made in house; host or cells: E. coli BL21(DE3)
T3 sequence (P11309 whole entry E142D): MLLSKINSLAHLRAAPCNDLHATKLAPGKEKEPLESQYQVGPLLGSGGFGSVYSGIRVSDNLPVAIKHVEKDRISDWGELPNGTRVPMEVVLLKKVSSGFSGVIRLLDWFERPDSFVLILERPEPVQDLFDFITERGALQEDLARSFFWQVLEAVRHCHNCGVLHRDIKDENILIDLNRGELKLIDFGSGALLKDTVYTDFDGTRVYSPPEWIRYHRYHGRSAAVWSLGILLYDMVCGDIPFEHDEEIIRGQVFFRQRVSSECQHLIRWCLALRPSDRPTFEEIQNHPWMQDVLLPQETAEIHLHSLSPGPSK
Experimental: as §2

Pim-1 E135K = molecular target: T4, Pim-1 E135K (Homo sapiens, UniProt P11309, E135K); assay: as above; conditions: Pim-1 E135K 2 µM, compound 10 µM
T4 construct: hexahistidine tag (TEV-cleavable) (cleaved yes); made in house; host or cells: E. coli BL21(DE3)
T4 sequence (P11309 whole entry E135K): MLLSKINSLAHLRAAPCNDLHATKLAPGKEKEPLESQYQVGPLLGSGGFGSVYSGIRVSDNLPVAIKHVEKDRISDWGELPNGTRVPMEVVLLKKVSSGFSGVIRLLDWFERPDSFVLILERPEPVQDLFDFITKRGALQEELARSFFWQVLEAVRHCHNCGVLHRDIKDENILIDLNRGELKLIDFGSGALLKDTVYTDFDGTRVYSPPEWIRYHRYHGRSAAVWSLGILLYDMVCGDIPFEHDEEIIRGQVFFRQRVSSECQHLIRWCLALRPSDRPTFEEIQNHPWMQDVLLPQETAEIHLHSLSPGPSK
Experimental: as §2

Pim-1 Y53H [3] = molecular target: T5, Pim-1 Y53H (Homo sapiens, UniProt P11309, Y53H); assay: as above; conditions: Pim-1 Y53H 2 µM, compound 10 µM
T5 construct: hexahistidine tag (TEV-cleavable) (cleaved yes); made in house; host or cells: E. coli BL21(DE3)
T5 sequence (P11309 whole entry Y53H): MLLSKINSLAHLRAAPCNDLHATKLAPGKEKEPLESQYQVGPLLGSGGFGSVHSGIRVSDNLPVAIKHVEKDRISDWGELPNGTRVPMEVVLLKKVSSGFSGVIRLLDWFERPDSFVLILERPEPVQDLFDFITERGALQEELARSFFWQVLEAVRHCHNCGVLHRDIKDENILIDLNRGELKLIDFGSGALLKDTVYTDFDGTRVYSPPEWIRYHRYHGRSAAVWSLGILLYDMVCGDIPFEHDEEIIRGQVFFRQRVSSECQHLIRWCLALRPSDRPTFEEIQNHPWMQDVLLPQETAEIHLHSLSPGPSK
Experimental: as §2

Pim-1 Y53H [4] = molecular target: T5, Pim-1 Y53H; assay: Caliper mobility shift kinase assay; assay type: biochemical; conditions: Y53H relative to Pim-1 wild type
Experimental: as §1

Pim-1 variants = assay: Caliper mobility shift kinase assay; assay type: biochemical, human; conditions: exception K00487 and K00207a for Y53H
Experimental: as §1

T1 sequence (P11309 whole entry): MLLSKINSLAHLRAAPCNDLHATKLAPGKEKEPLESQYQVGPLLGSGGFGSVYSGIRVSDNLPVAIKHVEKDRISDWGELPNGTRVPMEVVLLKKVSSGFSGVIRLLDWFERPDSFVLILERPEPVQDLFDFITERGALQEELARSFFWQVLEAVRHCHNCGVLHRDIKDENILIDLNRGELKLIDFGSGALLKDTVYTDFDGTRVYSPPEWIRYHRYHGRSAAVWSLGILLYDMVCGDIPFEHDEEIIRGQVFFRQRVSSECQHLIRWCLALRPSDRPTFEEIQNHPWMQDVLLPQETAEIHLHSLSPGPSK

SMILES	Km (Pim-1 wild type [1])	ΔTm (Pim-1 E124Q)	ΔTm (Pim-1 wild type [2])	ΔTm (Pim-1 E142D)	ΔTm (Pim-1 E135K)	ΔTm (Pim-1 Y53H [3])	fold increase of IC50 versus wild type (Pim-1 Y53H [4])	IC50 for Pim-1 variants compared with wild type (Pim-1 variants)
Nc1ncnc2c1ncn2[C@@H]1O[C@H](COP(=O)(O)OP(=O)(O)OP(=O)(O)O)[C@@H](O)[C@H]1O [ATP]	205 µM	–	–	–	–	–	–	–
COCCNc1ccc2ncc(-c3cccc(Cl)c3)n2n1 [K00478]	–	4.9 K	6.0 K	4.8 K	5.9 K	4.5 K	–	–
CCC(CO)Nc1ccc2ncc(-c3cccc(OC(F)(F)F)c3)n2n1 (centres unmarked) [K00487]	–	7.6 K	7.7 K	8.1 K	7.5 K	7.0 K	1.8 fold	closely similar
Clc1ccc(-c2cnc3ccc(NC4CCOCC4)nn23)cc1 [K00499]	–	5.6 K	5.5 K	6.6 K	6.0 K	5.9 K	–	–
CC(C)[C@@H](CO)Nc1ccc2ncc(-c3cccc(OC(F)(F)F)c3)n2n1 [K00512]	–	8.5 K	8.4 K	8.8 K	8.9 K	8.1 K	–	–
CC(C)[C@@H](CO)Nc1ccc2ncc(-c3cccc(Cl)c3)n2n1 [K00514]	–	6.1 K	6.1 K	6.2 K	7.5 K	5.6 K	–	–
CC(C)[C@@H](CO)Nc1ccc2ncc(-c3cccc(C(F)(F)F)c3)n2n1 [K00516]	–	8.2 K	8.2 K	7.7 K	9.0 K	6.9 K	–	–
CC(=O)c1cccc(-c2cnc3ccc(N[C@H](CO)C(C)C)nn23)c1 [K00518]	–	4.3 K	5.6 K	5.3 K	6.4 K	4.6 K	–	–
FC(F)(F)Oc1cccc(-c2cnc3ccc(NCC4CC4)nn23)c1 [K00520]	–	5.0 K	6.8 K	6.4 K	6.5 K	5.5 K	–	–
Cn1c2c(c3ccc(Cl)c(Cl)c31)C(C#N)C1(CCOCC1)NC2=O (centres unmarked) [K01741a]	–	3.3 K	5.1 K	3.3 K	5.2 K	3.3 K	–	–
CCN1CCC2(CC1)NC(=O)c1c(c3ccc(Cl)c(Cl)c3n1C)C2C#N (centres unmarked) [K01786a]	–	7.2 K	8.4 K	8.6 K	8.2 K	8.2 K	–	–

— paper PMC3673989, “Effect of Single Amino Acid Substitution Observed in Cancer on Pim-1 Kinase Thermodynamic Stability and Structure” (PLoS ONE, 2013)
